Results from article PMC11472313, “Development of Fragment-Based Inhibitors of the Bacterial Deacetylase LpxC with Low Nanomolar Activity” (Journal of Medicinal Chemistry, 2024).
Values after ≈ are worked out from the molar mass of the structure shown.

Columns and labels:
[1] = test system: E. coli D22; assay: disc diffusion assay; type: cell-based; conditions: 0.15 μmol per 6 mm disc
Method: (§1) Besides measuring the inhibitory activities toward E. coli LpxC C63A, the antibacterial activities of the synthesized hydroxamic acids were evaluated by determining their minimal inhibitory concentrations (MIC) in broth dilution tests as well as by performing disc diffusion assays (Table 1).
(§2) The disc diffusion assays against E. coli BL21(DE3) and the defective strain E. coli D22 were performed as follows: liquid cultures of the bacteria were grown overnight in lysogeny broth (LB)[73] at 37 °C and 200 rpm. 150 μL of an overnight cell suspension was spread evenly onto LB agar plates. 0.15 μmol of each compound (dissolved in 10 or 15 μL DMSO) were applied onto circular filter paper (Ø = 6 mm, Cytiva). Pure DMSO, serving as a negative control, and CHIR-090, serving as a positive control, were also spotted. The agar plates were incubated overnight at 37 °C, and the diameter of the zone of growth inhibition was measured for each compound. Each assay was performed at least three times on separate days.

[2] = test system: E. coli BL21(DE3); assay: disc diffusion assay; type: cell-based; conditions: 0.15 μmol per 6 mm disc
Method: as §1, §2

[3] = target: T1, E. coli LpxC C63A (Escherichia coli, UniProt P0A725, C63A); assay: fluorescence-based E. coli LpxC C63A enzyme inhibition assay; type: biochemical; conditions: Ki E. coli LpxC C63A, from IC50 via Cheng–Prusoff
T1 construct: made in house; host or cells: E. coli BL21(DE3)
T1 sequence (P0A725 whole entry C63A): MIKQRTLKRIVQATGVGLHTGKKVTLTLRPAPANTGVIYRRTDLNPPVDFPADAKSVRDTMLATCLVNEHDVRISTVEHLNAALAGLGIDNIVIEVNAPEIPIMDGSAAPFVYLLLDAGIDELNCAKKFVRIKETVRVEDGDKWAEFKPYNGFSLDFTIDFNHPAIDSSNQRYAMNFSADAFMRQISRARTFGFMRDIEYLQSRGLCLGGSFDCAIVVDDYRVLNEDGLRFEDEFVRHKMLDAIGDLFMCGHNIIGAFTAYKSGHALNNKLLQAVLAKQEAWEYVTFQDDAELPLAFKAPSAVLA
Method: In order to determine the inhibitory activities of the compounds of interest toward E. coli LpxC, a fluorescence-based enzyme assay was deployed, in which the formed deacetylated natural product UDP-3-O-[(R)-3-hydroxymyristoyl]glucosamine (2) is transformed into a fluorescent isoindole with o-phthaldialdehyde and 2-mercaptoethanol.[48],[49] […] The KM of E. coli LpxC C63A was determined experimentally using a mass spectrometry-based LpxC assay (Figure S8, Supporting Information, vide infra).
A fluorescence-based microplate assay for LpxC activity was performed as described by Clements et al.[48] The wells in a black, nonbinding, 96-well fluorescence microplate (Greiner Bio One, Frickenhausen) were filled with 93 μL of 26.9 μM UDP-3-O-[(R)-3-hydroxymyristoyl]-N-acetylglucosamine in assay buffer [40 mM sodium morpholinoethanesulfonic acid (pH 6.0), 80 μM dithiothreitol, 0.02% Brij 35]. In order to assay the inhibitors at final concentrations from 20 nM up to 20 μM, 2 μL of a respective dilution of the compounds in DMSO were added. The addition of 5 μL of a solution of purified LpxC (10 μg mL^–1) in assay buffer led to final concentrations of 25 μM UDP-3-O-[(R)-3-hydroxymyristoyl]-N-acetylglucosamine, 15 nM E. coli LpxC C63A, 2% DMSO, and from 20 nM up to 20 μM inhibitor. The microplate was incubated for 30 min at 37 °C in a plate shaker. Then, the biochemical reaction was stopped by adding 40 μL of 0.625 M sodium hydroxide. The reaction mixture was further incubated for 10 min and neutralized by adding 40 μL of 0.625 M acetic acid. The deacetylated product UDP-3-O-[(R)-3-hydroxymyristoyl]glucosamine was converted into a fluorescing isoindole by adding 120 μL of an o-phthaldialdehyde-2-mercaptoethanol solution, which was prepared by dissolving 10 mg of o-phthaldialdehyde in 1 mL of methanol, diluting the mixture with 24 mL of a sodium borate buffer (0.1 M), and finally adding 2.5 μL of 2-mercaptoethanol.[49] Fluorescence was measured with a TriStar^2 S LB 942 plate reader (Berthold, Bad Wildbad) at 340 nm excitation and 460 nm emission wavelengths. Each assay was performed at least three times on separate days. The IC50 values were calculated via Probit-log concentration graphs with the aid of the software Origin and were subsequently converted into Ki values using the Cheng–Prusoff equation.[75],[76]

[4] = test system: E. coli D22; assay: MIC, broth microdilution; type: cell-based; conditions: Escherichia coli, 20 h, 37 °C, LB
Method: as §1
(§3) The MIC values of the compounds were determined by means of the microdilution method using 96-well plates.
(§4) The overnight suspension was diluted 1:1000 in fresh LB. 10 μL of a 2-fold dilution series of the compounds in DMSO and 90 μL of LB were dispensed to each well of a 96-well plate. Then, 100 μL of the inoculated medium was added, resulting in 5 × 10^5 cfu mL^–1, 5% DMSO, and a final concentration range of the test compounds between 64 and 0.016 μg mL^–1. The plates were incubated for 20 h at 37 °C. The MIC was defined as the lowest concentration of the compounds that prevented visible growth after incubation. Each assay was performed at least three times on separate days.

[5] = test system: E. coli BL21(DE3); assay: MIC, broth microdilution; type: cell-based; conditions: Escherichia coli, 20 h, 37 °C, LB
Method: as §1, §3, §4

[6] = target: T2, P. aeruginosa LpxC (Pseudomonas aeruginosa, UniProt P47205); assay: LC–MS/MS-based P. aeruginosa LpxC enzyme inhibition assay; type: biochemical; conditions: from IC50 via Cheng–Prusoff
T2 construct: made in house; host or cells: E. coli BL21(DE3)
T2 sequence (P47205 whole entry): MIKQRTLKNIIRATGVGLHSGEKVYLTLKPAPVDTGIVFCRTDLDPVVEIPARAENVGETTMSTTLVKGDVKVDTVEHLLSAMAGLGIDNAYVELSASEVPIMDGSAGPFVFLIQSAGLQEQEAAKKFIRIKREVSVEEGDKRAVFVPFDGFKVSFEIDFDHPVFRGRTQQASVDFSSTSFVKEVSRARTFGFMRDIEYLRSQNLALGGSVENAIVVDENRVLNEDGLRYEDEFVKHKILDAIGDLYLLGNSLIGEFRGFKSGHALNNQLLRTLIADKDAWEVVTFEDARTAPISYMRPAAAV
From the text: As Pseudomonas aeruginosa is one of the so-called ESKAPE pathogens,[56] being the leading cause of nosocomial infections throughout the world, and carbapenem-resistant P. aeruginosa strains were assigned the highest priority (priority 1: critical) within the “WHO priority pathogens list for R&D of new antibiotics” (WHO 2017),[57] new antibacterial agents combating these bacteria are urgently required. Thus, our newly developed LpxC inhibitors should be tested for inhibitory activity toward P. aeruginosa LpxC, which shares 57% sequence identity with E. coli LpxC.[28] Therefore, a liquid chromatography with tandem mass spectrometry (LC–MS/MS)-based P. aeruginosa LpxC assay was established. […] After incubation and subsequent termination of the enzymatic reaction, the samples were subjected to LC–MS/MS analysis. Following the chromatographic separation of substrate 1 and deacetylated product 2, the eluted compounds were ionized and subjected to fragmentation. Three multiple reaction monitoring (MRM) transitions were detected per compound [precursor ions: m/z (substrate 1) 832; m/z (deacetylated product 2) 790; product ions: m/z (product 1) 385, collision energy = −60 V; m/z (product 2) 159, collision energy = −80 V; m/z (product 3) 79, collision energy = −140 V]. The MRM transitions 832 → 79 of substrate 1 and 790 → 79 of product 2 were used as quantifiers; the other mass transitions were used as qualifiers.
The protocol of the LC–MS/MS-based P. aeruginosa LpxC assay was based on the E. coli LpxC C63A enzyme assay. Compared to the fluorescence-based enzyme assay, the substrate was diluted 1:10 and the inhibitors were diluted 1:4.
The wells in a black, nonbinding, 96-well fluorescence microplate (Greiner Bio One, Frickenhausen) were filled with 93 μL of 2.69 μM UDP-3-O-[(R)-3-hydroxymyristoyl]-N-acetylglucosamine in assay buffer [50 mM KH2PO4/K2HPO4 (pH = 7.5), 80 μM dithiothreitol, 0.02% Brij 35]. In order to assay the inhibitors at final concentrations from 5 nM up to 5 μM, 2 μL of a respective dilution of the compounds in DMSO were added. The addition of 5 μL of a solution of purified P. aeruginosa LpxC (5 μg mL^–1) in assay buffer led to final concentrations of 2.5 μM UDP-3-O-[(R)-3-hydroxymyristoyl]-N-acetylglucosamine, 7.5 nM P. aeruginosa LpxC, 2% DMSO, and from 5 nM up to 5 μM inhibitor. The microplate was incubated for 30 min at 37 °C in a plate shaker. Then, the biochemical reaction was stopped by adding 40 μL of 0.625 M hydrochloric acid. The reaction mixtures were further incubated for 10 min, sealed, and stored at −80 °C until analysis.
LC–MS/MS-Analysis. The reaction mixtures were separated by ultrahigh performance liquid-chromatography (1290 II Infinity UHPLC, Agilent Technologies), and the eluted compounds were analyzed by mass spectrometry using electrospray ionization in negative ion mode with a triple quadrupole linear ion trap mass spectrometer (QTRAP 5500, AB Sciex LLC).
To analyze the eluted compounds by mass spectrometry, a MRM method was applied. The specific parameters of this method are given in Table S2 (Supporting Information). After detection and selection of the precursor ions (1: m/z 832; 2: m/z 790), both analytes were fragmented, leading to three identical product ions [m/z (product 1) 385, collision energy = −60 V; m/z (product 2) 159, collision energy = −80 V; m/z (product 3) 79, collision energy = −140 V]. The mass transitions 832 → 79 (substrate 1) and 790 → 79 (product 2) were used as quantifiers; the other mass transitions were used as qualifiers. The ratio between substrate 1 and product 2 was quantified by comparing the peak areas of the quantifiers. The percentual inhibition caused by each inhibitor concentration was determined with respect to the amount of the product formed in the noninhibited reaction after 30 min.
Each assay was performed at least two times on separate days. […]

[7] = test system: LpxC–9 complex; assay: NMR-ILOE (interligand NOESY) of fragment hits with LpxC and 9; conditions: fragment hits binding the LpxC–9 complex by STD and WaterLogsy; 6 μM LpxC
Method: In order to find fragments specifically addressing the UDP-binding pocket, which can be linked to the LpxC inhibitors, a fragment screen was performed against LpxC bound to 9. First, 650 fragments in cocktails of five were tested for binding to the LpxC–9 complex using STD-NMR and WaterLogsy experiments. Then, fragment hits identified as potential binders were tested one by one against the LpxC–9 complex by STD-NMR and WaterLogsy experiments performed under identical experimental conditions. A total of 97 fragment hits were identified as binders, leading to a hit rate of 15%.
Then, NMR-ILOE experiments were performed with selected fragment hits in the presence of LpxC and the unsubstituted hydroxamic acid 9. This allowed the identification of fragments that bind in the enzyme’s UDP-binding pocket near the methylene group in the α-position of the inhibitor’s hydroxamate moiety. Weak interligand NOESY peaks were observed between inhibitor 9 and nine fragments. By contrast, no interligand NOESY peaks were observed between compound 9 and the other ten fragments. […] Unexpectedly, we also observed interligand NOESY between the fragment protons and protons of the morpholino moiety.
Standard 1D and STD NMR spectra were acquired at 20 °C with a Bruker 600 MHz NMR spectrometer equipped with a 5 mm cryoprobe. Parameters for the STD experiments (saturation frequency and saturation time) were identical for all samples. […] STD saturation time was 2 s. WaterLOGSY mixing time was 1.5 s. Two NOESY experiments were recorded with mixing times of 0.6 and 0.3 s. STD and WaterLOGSY spectra were recorded with the same NMR tubes containing 3 μM LpxC, compound 9 at 500 μM, and fragments at 500 μM. For NOESY experiments, NMR tubes contained 6 μM LpxC.
Temperature was set to 293 K for all NMR experiments.

Question: How did the “Inhibition zone E. coli D22” value [1] turn out when `O=C(NC[C@@H](OCc1ccc(C#Cc2ccc(CN3CCOCC3)cc2)cc1)C(=O)NO)c1c[nH]c2ccccc12` [(R)-13h] was run?
Answer: Its value is 13.3 ± 1.0 mm.

Question: What about the “Inhibition zone E. coli BL21(DE3)” value [2] of the same compound?
Answer: The value was ≤6 mm.

Question: And the Ki [3]?
Answer: The Ki was 1580 ± 216 nM.

Question: And the MIC [4]?
Answer: The MIC was 4 µg/mL (≈ 7.24 µM).

Question: And the MIC [5]?
Answer: The MIC was > 16 µg/mL.

Question: What about the Ki [6] of the same compound?
Answer: The Ki was 631 ± 198 nM.

Question: For `Oc1ccc(-n2ccnc2)cc1` [F2], which “Inter-Ligand NOESY peaks between the fragment and 9” value [7] is on record?
Answer: Its value is “yes”.

Question: Which “Inter-Ligand NOESY peaks between the fragment and 9” value [7] does the source give for `c1ccc2[nH]ccc2c1` [F3] here?
Answer: Its value is “yes”.

Question: `NC(=O)Cc1c[nH]c2ccc(Cl)cc12` [F4] was tested. Which “Inter-Ligand NOESY peaks between the fragment and 9” value [7] did it give?
Answer: The value was “yes”.

Question: For `c1ccc2c(c1)CCCN2` [F5], which “Inter-Ligand NOESY peaks between the fragment and 9” value [7] is on record?
Answer: The value was “yes”.

Question: How did the “Inter-Ligand NOESY peaks between the fragment and 9” value [7] turn out when `Nc1cnc2ccccc2c1` [F6] was run?
Answer: Its value is “yes”.

Question: With `Nc1c2c(nc3ccccc13)CCCC2` [F7] as the compound, how does the “Inter-Ligand NOESY peaks between the fragment and 9” value [7] read?
Answer: The value was “no”.

Question: Which “Inter-Ligand NOESY peaks between the fragment and 9” value [7] does the source give for `c1ccc(C2NCCn3cccc32)cc1` (stereo not drawn) [F8] here?
Answer: Its value is “no”.

Question: Which “Inter-Ligand NOESY peaks between the fragment and 9” value [7] does the source give for `OCc1ccc(-n2cccn2)cc1` [F9] here?
Answer: The value was “no”.

Question: For `c1ccc(Nc2ccccn2)nc1` [F10], which “Inter-Ligand NOESY peaks between the fragment and 9” value [7] is on record?
Answer: The value was “no”.

Question: With `NCc1ccc(-c2ccccc2)cc1` [F11] as the compound, how does the “Inter-Ligand NOESY peaks between the fragment and 9” value [7] read?
Answer: Its value is “yes”.

Question: For `c1ccc2[nH]ncc2c1` [F12], which “Inter-Ligand NOESY peaks between the fragment and 9” value [7] is on record?
Answer: Its value is “no”.

Question: How did the “Inter-Ligand NOESY peaks between the fragment and 9” value [7] turn out when `Cn1c(O)cc2ccccc21` [F13] was run?
Answer: The value was “no”.

Question: Which “Inter-Ligand NOESY peaks between the fragment and 9” value [7] does the source give for `c1ccc(-c2cc[nH]n2)cc1` [F14] here?
Answer: The value was “yes”.

Question: Which “Inter-Ligand NOESY peaks between the fragment and 9” value [7] does the source give for `O=c1ccn([C@@H]2O[C@H](CO)[C@@H](O)[C@H]2O)c(=O)[nH]1` [F15] here?
Answer: Its value is “no”.

Question: How did the “Inter-Ligand NOESY peaks between the fragment and 9” value [7] turn out when `O=c1cc[nH]c(=O)[nH]1` [F16] was run?
Answer: The value was “no”.

Question: Which “Inter-Ligand NOESY peaks between the fragment and 9” value [7] does the source give for `Nc1cccc(-c2cnco2)c1` [F17] here?
Answer: The value was “no”.

Question: With `O=C1OCc2ccccc21` [F18] as the compound, how does the “Inter-Ligand NOESY peaks between the fragment and 9” value [7] read?
Answer: Its value is “no”.

Question: `c1ccc(Cn2ccnc2)cc1` [F19] was tested. Which “Inter-Ligand NOESY peaks between the fragment and 9” value [7] did it give?
Answer: Its value is “yes”.
